Patent publication US20120204273A1, “COMPOSITIONS RELATING TO A PHOSPHOPROTEIN AND METHODS OF USE” (SANFORD-BURNHAM MEDICAL RESEARCH INSTITUTE, priority 2010, published 2012)

Assays:
3T3-L1 adipocytes = test: Endogenous GLUT4 accumulation in the TIRF zone (fixed adipocytes); assay type: cell-based, mouse; details: 100 nM insulin; scrambled siRNA
Protocol: FIG. 2, panels A-C show knockdown of CDP138 in 3T3-L1 adipocytes inhibits insulin-stimulated glucose transport (A) and myc-GLUT4-GFP translocation (B), but not endogenous GLUT4 movement to the periphery detected in TIRF zone (C). (A): Differentiated adipocytes at day 5 were transfected with siRNAs against mouse 5730419I09Rik or the scrambled siRNA (Scr) as described earlier (Jiang et al., 2003) for 60 hrs, then serum starved overnight. Cells were then treated with or without insulin (1 nM and 100 nM) for 30 min for the glucose uptake assay, or 15 min for immunoblotting of CDP138, pAkt, Akt and β-actin. […] Cell surface Myc-GLUT4-GFP was detected with anti-myc monoclonal Ab (9E10) and Alexa Fluor 568-labeled goat anti-mouse IgG in non-permeablized cells. The Myc signal and GFP signal were quantified as previously described (Jiang et al., 2002). […] GLUT4 was detected with a goat anti-GLUT4 Ab and Alexa Fluor 488-conjugated donkey anti-goat Ab in permeabilized cells. […] We also quantified endogenous GLUT4 redistribution to the PM using total internal reflection fluorescence microscopy (TIRFM) with a setting of about 100 nm distance from the coverslip (FIG. 2C, top panel). For this experiment, endogenous GLUT4 was detected by immunofluorescent staining with a goat anti-GLUT4 Ab that recognizes the cytoplasmic C-terminus of GLUT4. […]

HA-CDP138 = test: Phosphorylation of HA-CDP138 in CHO-T cells (anti-HA IP, PAS antibody blot); assay type: cell-based, hamster; details: insulin 100 nM, 15 min
Description: FIG. 1, panels A-D, show an uncharacterized C2 domain-containing protein encoded by 5730419I09Rik is a novel phosphoprotein identified in insulin-stimulated adipocytes using a SILAC phosphoproteomic approach. (A): Schematic procedure for SILAC quantitative proteomics used for identification and quantification of peptide from CDP138 (5730419I09Rik). Top right panel: quantification of CDP138 peptide from different groups of adipocytes. Lower right panel: Schematic diagram of CDP138 and the identified phosphorylation sites. (B): Confirmation of CDP138 phosphorylation induced by insulin. CHO-T cells expressing HA-CDP138, or differentiated 3T3-L1 adipocytes were treated with or without insulin (100 nM) for 15 min. A third sample was pretreated with wortmannin (100 nM, WM) for 20 min or LY294002 (50 μM, LY) for 1 hour before insulin stimulation. […] CDP138, pS473-Akt and Akt protein were also detected with total cell lysates. […] Whole cell extracts (25 μg total protein) from different tissues (lean mice, left panel) and epididymal fat pads from both ob/ob and lean mice (24 weeks old, Jackson Lab, Bar Harbor, Me.; middle panel) were analyzed by immunoblotting with antibodies against CDP138, IRS-1, Akt, Erk1/2, and β-actin. Right panel: quantification of CDP138 protein levels in fat tissues from lean and obese mice. […]

insulin was tested, and the “enhancement of GLUT4 signal in the TIRF zone” value (3T3-L1 adipocytes) was “about 2.5 fold” and the “phosphorylation of HA-tagged CDP138 detected with PAS antibodies” value (HA-CDP138) was “stimulates phosphorylation”.
